# Results as given in PMC3192848 (PLoS Pathogens, 2011).
# Target: T1, TgMIC1-MARR (Toxoplasma gondii, UniProt O00834)
# T1 construct: gene MIC1
# Assay type: binding
# Conditions: lipid-linked probe immobilised at 5 fmol/spot; 40 µg/ml protein precomplexed with anti-His antibodies; ambient temperature
# T1 sequence (O00834 17-262): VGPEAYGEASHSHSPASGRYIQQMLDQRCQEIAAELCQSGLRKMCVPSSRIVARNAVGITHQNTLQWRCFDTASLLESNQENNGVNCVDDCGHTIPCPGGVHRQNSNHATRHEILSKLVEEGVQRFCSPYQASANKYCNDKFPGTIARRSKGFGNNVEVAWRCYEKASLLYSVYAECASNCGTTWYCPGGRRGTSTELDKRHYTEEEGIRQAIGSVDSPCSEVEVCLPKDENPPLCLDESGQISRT
row,Molecule,Fluorescence signal intensities / TgMIC1-MARR
1,NeuAcα-3Galβ-3GlcNAcβ-3Galβ-4Glcß-C30 [compound 38],"11,580 fluorescence units"
2,NeuGcα-6GalNAc-AO [compound 88],"13,982 fluorescence units"
3,NeuAcα-3Galß-4Glcß-Cer [compound 59],"4,327 fluorescence units"
4,NeuGcα-3Galβ-3GlcNAcβ-3Galβ-4Glcß-C30 [compound 39],"11,075 fluorescence units"
5,NeuGcα-3Galß-4Glcß-Cer [compound 60],"12,526 fluorescence units"

# Target: T2, EtMIC3-MAR1b (NMR construct) (Eimeria tenella, UniProt B6VCV4)
# T2 construct: gene mic3
# Assay type: binding
# Conditions: phosphate buffer pH 5.5; sialic acid contacts L175, Y178 and HLT motif
row,Molecule,isotope-filtered NMR NOESY; HADDOCK structure from 9 intermolecular NOEs
1,CC(=O)N[C@H]1[C@H]([C@H](O)[C@H](O)CO)O[C@@](O[C@H]2[C@@H](O)[C@@H](CO)O[C@@H](O[C@H]3[C@H](O)[C@@H](NC(C)=O)C(O)O[C@@H]3CO)[C@@H]2O)(C(=O)O)C[C@@H]1O (stereo partly drawn) [Siaα2–3Galβ1–4GlcNAc],intermolecular NOEs

# Target: T3, EtMIC3-MAR1b (thioredoxin-His fusion, microarray) (Eimeria tenella, UniProt B6VCV4)
# T3 construct: gene mic3
# Assay type: binding
# Conditions: lipid-linked probe immobilised at 5 fmol/spot; 40 µg/ml protein precomplexed with anti-His antibodies; ambient temperature
row,Molecule,Fluorescence signal intensities / EtMIC3-MAR1b
1,NeuAcα-3Galβ-3GlcNAcβ-3Galβ-4Glcß-C30 [compound 38],"5,423 fluorescence units"
2,GT1b [compound 109],"8,121 fluorescence units"
3,NeuAcα-6Galβ-4GlcNAcβ-3Galβ-4Glc-DH [compound 79],"5,570 fluorescence units"
